Experimental findings from EPA's ToxValDB 9.5 (doi:10.2903/j.efsa.2010.1769) are described below.

One series concerns Oncorhynchus mykiss. The conditions noted are these: chronic/long-term; duration: 28 days.
In a further series the test system is Canidae. To be noted: chronic, duration: 1 years, oral, Dog Other.
The next series relates to Apis mellifera. The conditions noted are these: acute, mortality.
For another series, the system named is Landoltia sp. To be noted: acute.
The subject of another series is Danio rerio. The conditions noted are these: acute; duration: 96 hours; mortality.
The subject of a further series is Typhlodromus pyri. In words: LR50; higher = less toxic. To be noted: not reported; mortality.
A further series relates to Aphidius rhopalosiphi. In words: LR50; higher = less toxic. The conditions noted are these: not reported; mortality.
The next series relates to Folsomia candida. To be noted: chronic/long-term; reproduction.

Values after ≈ are worked out from the molar mass of the structure shown.

Turning to `CCc1cccc(C)c1N(COC(C)C)C(=O)CCl` [Propisochlor], the NOEC with Oncorhynchus mykiss is 0.18 mg/L; with Landoltia sp., 21 µg/L; in the series on Daphnia magna (chronic/long-term, duration: 21 days) it was 0.93 mg/L; in the series on Tagia sp. (acute), 62.5 mg/kg. The NOAEL (commonly the highest tested level that showed no adverse finding) stood at 5 mg/kg-day in the series on Canidae and 10 mg/kg-day in the series on Rattus norvegicus (reproduction developmental, reproduction). For the same compound, the LOAEL (as a rule, the lowest tested level that showed an adverse finding) with Canidae (clinical signs) came out at 5 mg/kg-day. Moreover, the LD50 was above 100 µg/piece in the series with Apis mellifera (dermal); above 111 µg/piece in the series on Apis mellifera (oral, unspecified); 1920 mg/kg in the series on Rattus norvegicus (acute, oral, mortality). The LC50 with Danio rerio is 0.93 µg/mL (≈ 3.28 µM); with Daphnia magna (acute, duration: 96 hours, mortality), 4.46 µg/mL (≈ 15.7 µM); in the series with Tagia sp. (acute, mortality), 248 mg/kg. Also, the figures for the LR50 in the series on Typhlodromus pyri and with Aphidius rhopalosiphi were 1500 g/ha and 20300 g/ha, respectively.
Regarding `CCc1cccc(C)c1NC(=O)CS(=O)(=O)O` [2-(2-ethyl-6-methylanilino)-2-oxoethane-1-sulfonic acid], the NOEC was above 1000 mg/kg with Folsomia candida and 3.5 mg/kg in the series on Tagia sp. (chronic/long-term, duration: 56 days).
Consider `CCc1cccc(C)c1N(COC(C)C)C(=O)C(=O)O`, for which the NOEC in the series with Folsomia candida was above 1000 mg/kg.
